Experimental data as given in the CheMixHub viscosity set.
± gives the uncertainty stated by the source.

Assay: xn = mol fraction of the nth substance listed

## CCCCOCCCOCCCO + CCO
298.15 K, 101.33 kPa, x1 = 0.05
  viscosity: 1.3 ± 0.02 mPa·s
298.15 K, 101.33 kPa, x1 = 0.1
  viscosity: 1.505 ± 0.023 mPa·s
298.15 K, 101.33 kPa, x1 = 0.15
  viscosity: 1.717 ± 0.026 mPa·s
298.15 K, 101.33 kPa, x1 = 0.2
  viscosity: 1.927 ± 0.029 mPa·s
298.15 K, 101.33 kPa, x1 = 0.25
  viscosity: 2.135 ± 0.032 mPa·s
298.15 K, 101.33 kPa, x1 = 0.3
  viscosity: 2.362 ± 0.035 mPa·s
298.15 K, 101.33 kPa, x1 = 0.35
  viscosity: 2.562 ± 0.038 mPa·s
298.15 K, 101.33 kPa, x1 = 0.4001
  viscosity: 2.755 ± 0.04 mPa·s
298.15 K, 101.33 kPa, x1 = 0.4499
  viscosity: 2.94 ± 0.043 mPa·s
298.15 K, 101.33 kPa, x1 = 0.4999
  viscosity: 3.121 ± 0.045 mPa·s
298.15 K, 101.33 kPa, x1 = 0.5499
  viscosity: 3.292 ± 0.048 mPa·s
298.15 K, 101.33 kPa, x1 = 0.5997
  viscosity: 3.453 ± 0.05 mPa·s
298.15 K, 101.33 kPa, x1 = 0.6501
  viscosity: 3.608 ± 0.052 mPa·s
298.15 K, 101.33 kPa, x1 = 0.6998
  viscosity: 3.756 ± 0.054 mPa·s
298.15 K, 101.33 kPa, x1 = 0.7499
  viscosity: 3.899 ± 0.056 mPa·s
298.15 K, 101.33 kPa, x1 = 0.7999
  viscosity: 4.018 ± 0.058 mPa·s
298.15 K, 101.33 kPa, x1 = 0.8499
  viscosity: 4.147 ± 0.059 mPa·s
298.15 K, 101.33 kPa, x1 = 0.8997
  viscosity: 4.271 ± 0.061 mPa·s
298.15 K, 101.33 kPa, x1 = 0.9498
  viscosity: 4.386 ± 0.063 mPa·s
308.15 K, 101.33 kPa, x1 = 0.05
  viscosity: 1.074 ± 0.017 mPa·s
308.15 K, 101.33 kPa, x1 = 0.1
  viscosity: 1.227 ± 0.019 mPa·s
308.15 K, 101.33 kPa, x1 = 0.15
  viscosity: 1.386 ± 0.021 mPa·s
308.15 K, 101.33 kPa, x1 = 0.2
  viscosity: 1.541 ± 0.023 mPa·s
308.15 K, 101.33 kPa, x1 = 0.25
  viscosity: 1.696 ± 0.026 mPa·s
308.15 K, 101.33 kPa, x1 = 0.3
  viscosity: 1.858 ± 0.028 mPa·s
308.15 K, 101.33 kPa, x1 = 0.35
  viscosity: 2.003 ± 0.03 mPa·s
308.15 K, 101.33 kPa, x1 = 0.4001
  viscosity: 2.14 ± 0.032 mPa·s
308.15 K, 101.33 kPa, x1 = 0.4499
  viscosity: 2.265 ± 0.034 mPa·s
308.15 K, 101.33 kPa, x1 = 0.4999
  viscosity: 2.39 ± 0.035 mPa·s
308.15 K, 101.33 kPa, x1 = 0.5499
  viscosity: 2.51 ± 0.037 mPa·s
308.15 K, 101.33 kPa, x1 = 0.5997
  viscosity: 2.622 ± 0.038 mPa·s
308.15 K, 101.33 kPa, x1 = 0.6501
  viscosity: 2.724 ± 0.04 mPa·s
308.15 K, 101.33 kPa, x1 = 0.6998
  viscosity: 2.821 ± 0.041 mPa·s
308.15 K, 101.33 kPa, x1 = 0.7499
  viscosity: 2.91 ± 0.043 mPa·s
308.15 K, 101.33 kPa, x1 = 0.7999
  viscosity: 2.998 ± 0.044 mPa·s
308.15 K, 101.33 kPa, x1 = 0.8499
  viscosity: 3.088 ± 0.045 mPa·s
308.15 K, 101.33 kPa, x1 = 0.8997
  viscosity: 3.158 ± 0.046 mPa·s
308.15 K, 101.33 kPa, x1 = 0.9498
  viscosity: 3.233 ± 0.047 mPa·s
318.15 K, 101.33 kPa, x1 = 0.05
  viscosity: 0.896 ± 0.015 mPa·s
318.15 K, 101.33 kPa, x1 = 0.1
  viscosity: 1.015 ± 0.016 mPa·s
318.15 K, 101.33 kPa, x1 = 0.15
  viscosity: 1.137 ± 0.018 mPa·s
318.15 K, 101.33 kPa, x1 = 0.2
  viscosity: 1.256 ± 0.02 mPa·s
318.15 K, 101.33 kPa, x1 = 0.25
  viscosity: 1.369 ± 0.021 mPa·s
318.15 K, 101.33 kPa, x1 = 0.3
  viscosity: 1.497 ± 0.023 mPa·s
318.15 K, 101.33 kPa, x1 = 0.35
  viscosity: 1.597 ± 0.024 mPa·s
318.15 K, 101.33 kPa, x1 = 0.4001
  viscosity: 1.696 ± 0.026 mPa·s
318.15 K, 101.33 kPa, x1 = 0.4499
  viscosity: 1.79 ± 0.027 mPa·s
318.15 K, 101.33 kPa, x1 = 0.4999
  viscosity: 1.879 ± 0.028 mPa·s
318.15 K, 101.33 kPa, x1 = 0.5499
  viscosity: 1.956 ± 0.029 mPa·s
318.15 K, 101.33 kPa, x1 = 0.5997
  viscosity: 2.039 ± 0.03 mPa·s
318.15 K, 101.33 kPa, x1 = 0.6501
  viscosity: 2.114 ± 0.032 mPa·s
318.15 K, 101.33 kPa, x1 = 0.6998
  viscosity: 2.182 ± 0.032 mPa·s
318.15 K, 101.33 kPa, x1 = 0.7499
  viscosity: 2.24 ± 0.033 mPa·s
318.15 K, 101.33 kPa, x1 = 0.7999
  viscosity: 2.306 ± 0.034 mPa·s
318.15 K, 101.33 kPa, x1 = 0.8499
  viscosity: 2.363 ± 0.035 mPa·s
318.15 K, 101.33 kPa, x1 = 0.8997
  viscosity: 2.423 ± 0.036 mPa·s
318.15 K, 101.33 kPa, x1 = 0.9498
  viscosity: 2.466 ± 0.037 mPa·s

## N#Cc1ccccc1 + CCO
303.15 K, 101.33 kPa, x1 = 0.1051
  viscosity: 0.923 ± 0.028 mPa·s
303.15 K, 101.33 kPa, x1 = 0.2045
  viscosity: 0.891 ± 0.027 mPa·s
303.15 K, 101.33 kPa, x1 = 0.3213
  viscosity: 0.897 ± 0.023 mPa·s
303.15 K, 101.33 kPa, x1 = 0.4131
  viscosity: 0.901 ± 0.022 mPa·s
303.15 K, 101.33 kPa, x1 = 0.4921
  viscosity: 0.912 ± 0.02 mPa·s
303.15 K, 101.33 kPa, x1 = 0.6214
  viscosity: 0.938 ± 0.02 mPa·s
303.15 K, 101.33 kPa, x1 = 0.6673
  viscosity: 0.963 ± 0.019 mPa·s
303.15 K, 101.33 kPa, x1 = 0.769
  viscosity: 1.006 ± 0.019 mPa·s
303.15 K, 101.33 kPa, x1 = 0.9218
  viscosity: 1.075 ± 0.02 mPa·s
308.15 K, 101.33 kPa, x1 = 0.1051
  viscosity: 0.846 ± 0.025 mPa·s
308.15 K, 101.33 kPa, x1 = 0.2045
  viscosity: 0.817 ± 0.023 mPa·s
308.15 K, 101.33 kPa, x1 = 0.3213
  viscosity: 0.826 ± 0.022 mPa·s
308.15 K, 101.33 kPa, x1 = 0.4131
  viscosity: 0.834 ± 0.02 mPa·s
308.15 K, 101.33 kPa, x1 = 0.4921
  viscosity: 0.849 ± 0.019 mPa·s
308.15 K, 101.33 kPa, x1 = 0.6214
  viscosity: 0.873 ± 0.018 mPa·s
308.15 K, 101.33 kPa, x1 = 0.6673
  viscosity: 0.893 ± 0.019 mPa·s
308.15 K, 101.33 kPa, x1 = 0.769
  viscosity: 0.935 ± 0.018 mPa·s
308.15 K, 101.33 kPa, x1 = 0.9218
  viscosity: 1.005 ± 0.017 mPa·s
313.15 K, 101.33 kPa, x1 = 0.1051
  viscosity: 0.775 ± 0.023 mPa·s
313.15 K, 101.33 kPa, x1 = 0.2045
  viscosity: 0.75 ± 0.02 mPa·s
313.15 K, 101.33 kPa, x1 = 0.3213
  viscosity: 0.762 ± 0.02 mPa·s
313.15 K, 101.33 kPa, x1 = 0.4131
  viscosity: 0.772 ± 0.019 mPa·s
313.15 K, 101.33 kPa, x1 = 0.4921
  viscosity: 0.785 ± 0.018 mPa·s
313.15 K, 101.33 kPa, x1 = 0.6214
  viscosity: 0.813 ± 0.017 mPa·s
313.15 K, 101.33 kPa, x1 = 0.6673
  viscosity: 0.828 ± 0.017 mPa·s
313.15 K, 101.33 kPa, x1 = 0.769
  viscosity: 0.87 ± 0.017 mPa·s
313.15 K, 101.33 kPa, x1 = 0.9218
  viscosity: 0.939 ± 0.015 mPa·s

## CCCOCCO + CN1CCCC1=O
298.15 K, 101 kPa, x1 = 0.0057
  viscosity: 1.693 ± 0.02 mPa·s
298.15 K, 101 kPa, x1 = 0.0142
  viscosity: 1.702 ± 0.02 mPa·s
298.15 K, 101 kPa, x1 = 0.0273
  viscosity: 1.719 ± 0.021 mPa·s
298.15 K, 101 kPa, x1 = 0.0609
  viscosity: 1.756 ± 0.021 mPa·s
298.15 K, 101 kPa, x1 = 0.1004
  viscosity: 1.803 ± 0.022 mPa·s
298.15 K, 101 kPa, x1 = 0.1386
  viscosity: 1.847 ± 0.022 mPa·s
298.15 K, 101 kPa, x1 = 0.1786
  viscosity: 1.891 ± 0.023 mPa·s
298.15 K, 101 kPa, x1 = 0.2186
  viscosity: 1.94 ± 0.024 mPa·s
298.15 K, 101 kPa, x1 = 0.2578
  viscosity: 1.996 ± 0.025 mPa·s
298.15 K, 101 kPa, x1 = 0.2966
  viscosity: 2.038 ± 0.025 mPa·s
298.15 K, 101 kPa, x1 = 0.3343
  viscosity: 2.078 ± 0.026 mPa·s
298.15 K, 101 kPa, x1 = 0.3852
  viscosity: 2.132 ± 0.027 mPa·s
298.15 K, 101 kPa, x1 = 0.4436
  viscosity: 2.186 ± 0.028 mPa·s
298.15 K, 101 kPa, x1 = 0.5011
  viscosity: 2.244 ± 0.029 mPa·s
298.15 K, 101 kPa, x1 = 0.5422
  viscosity: 2.28 ± 0.03 mPa·s
298.15 K, 101 kPa, x1 = 0.6093
  viscosity: 2.311 ± 0.031 mPa·s
298.15 K, 101 kPa, x1 = 0.6638
  viscosity: 2.343 ± 0.032 mPa·s
298.15 K, 101 kPa, x1 = 0.7673
  viscosity: 2.355 ± 0.033 mPa·s
298.15 K, 101 kPa, x1 = 0.8387
  viscosity: 2.365 ± 0.034 mPa·s
298.15 K, 101 kPa, x1 = 0.8702
  viscosity: 2.362 ± 0.034 mPa·s
298.15 K, 101 kPa, x1 = 0.9445
  viscosity: 2.359 ± 0.035 mPa·s
298.15 K, 101 kPa, x1 = 0.976
  viscosity: 2.354 ± 0.035 mPa·s

## CCCCn1cc[n+](C)c1.[Cl-] + CN(C)C=O
293.15 K, 101 kPa, x2 = 0.5025
  viscosity: 76.7 ± 21 mPa·s
293.15 K, 101 kPa, x2 = 0.9
  viscosity: 3.41 ± 1.5 mPa·s
298.15 K, 101 kPa, x2 = 0.501
  viscosity: 64.4 ± 11 mPa·s
303.15 K, 101 kPa, x2 = 0.7005
  viscosity: 9.55 ± 1.6 mPa·s
308.15 K, 101 kPa, x1 = 0.1056
  viscosity: 1.665 ± 0.15 mPa·s
308.15 K, 101 kPa, x1 = 0.1399
  viscosity: 2.135 ± 0.18 mPa·s
308.15 K, 101 kPa, x2 = 0.7
  viscosity: 7.76 ± 1.3 mPa·s
